According to patent US20240252493A1, “Apelin Receptor Modulators for Treating Age-Related Muscle Conditions” (BIOAGE LABS, INC., priority 2021, published 2024):
Entries after “also recorded” stand apart in the source; their conditions may differ.

What was measured:
pAkt = assay: Western blot of pAkt in soleus after oral BGE-105; assay type: in vivo; conditions: mice, oral 45 mg/kg, vs vehicle
Description: Administration of an apelin receptor agonist can induce the phosphorylation and activation of AMPK in heart tissue. Tissue samples were lysed using T-PER tissue protein extraction reagent (Thermo Fisher Scientific #78510) containing EDTA and protease/phosphatase inhibitors on the Omni Bead Ruptor 12 Homogenizer. Total protein was extracted then quantified using Pierce™ BCA Protein Assay Kit. Loaded equal amounts of total protein per lane on a 4-12% SDS-PAGE gel and transferred to PVDF membrane. Membranes were blocked and blotted with anti-phospho-AMPKα-Thr172 (Cell Signaling Technology, CST #2535), total-AMPKα (CST #2532), anti-phospho-Akt-SeR^473 (CST #4060), total-Akt (CST #4685), anti-phospho-ERK-1/2-Thr202/Tyr204 of Erk1 and Thr185/Tyr187 of Erk2 (CST #4370), total-ERK-1/2 (CST #9107) or anti-APLNR receptor (abcam, ab214369) antibodies. Band intensities were normalized to loading control anti-β-Actin (CST #3700) or anti-GAPDH (abcam, ab181602) antibodies. Immunoreactive proteins were detected using SuperSignal™ West Femto Substrate (Thermo Fisher Scientific #34095) and quantified by Image Lab™ software (Bio-Rad Laboratories, Inc.).
Apelin can induce the phosphorylation of Akt in the soleus muscle and improve glucose homeostasis. […]

tibialis of aged mice = assay: CTX-induced muscle injury: histology (cross-sectional area, centrally nucleated fibers); assay type: in vivo
Experimental: Impairment of muscle regeneration can contribute to age-related muscle weakness. This is particularly true in aged individuals who engage in physical activity. Exercise-induced muscle hypertrophy is linked to the capacity of muscle stem cells to be activated and promote regeneration.
Mice were i.p injected with buprenorphine (Centravet, 0.1 mg/kg) 30 minutes before injury and the day after. The day of the injury, mice were anesthetized with isoflurane inhalation and hindlimbs were shaved. Then, 10 μM of cardiotoxin (CTX, Latoxan, #L8102) was injected through two injections of 25 μl into the left tibialis muscle and two injections of 50 μl into the left gastrocnemius muscle, using a 22-gauge needle (Hamilton). Mice were euthanized 3 and 7 days after injury by cervical dislocation, muscles (PBS- and CTX-injected) were cut in two parts, one being snap frozen into liquid nitrogen for total RNA extraction and the other part being embedded into OCT, frozen in isopentane cooled with liquid nitrogen for histological analysis.
Mouse muscle samples were dissected and cryopreserved in OCT frozen in liquid nitrogen cooled isopentane. Samples were then sectioned at 10 μm on a cryostat and post-fixed with 4% Paraformaldehyde (PFA) for 15min at room temperature. Muscle frozen sections (10 μm) were stained by helaun/eosin or immune-labeled for laminin (Abcam) and embryonic myosin. Briefly, sections were blocked 1 h in PBS plus 4% BS(a), 2% goat serum, 0.01% Triton X-100. Sections were then incubated overnight with primary antibodies. After washes in PBS, sections were incubated 1 h with secondary antibodies anti-Ig2b AF 488 (Life Technology). Slides were finally mounted in ProLong Gold antifade Reagent (Molecular probes by Life Technology) with DAPI. Images were captured using a digital camera (Nanozoomer, Hamamatsu) attached to a motorized fluorescence microscope or using Olympus VS120 Virtual Microscopy Slide Scanning System. The area covered by eMHC-positive fibers and degenerated area was determined manually across the entire sections using the VS-ASW FL software measurement tools. The size of myofibers with central nuclei was calculated from laminin/DAPI staining on all fibers of the section and area determination were performed across the entire sections, using an automated image processing algorithm developed internally using the MetaXpress software (Molecular Devices).

25-HMC [1] = assay: Proliferation of immortalized human muscle cells, younger donor; assay type: cell-based; conditions: for cell proliferation (measured at day 4): younger subject cells
Experimental: (§1) Immortalized human cells from male donors (25-HMC) […] (79-HMC) are grown from the proliferation stage until they become 80% confluent, differentiate, and become myotubes. […] Early proliferation markers (Pax7, Myf5, MyoD, and MyoG were assessed via RT-PCR (FIG. 8D to 8K)

25-HMC [2] = assay: Early proliferation marker expression (RT-PCR), younger donor cells; assay type: cell-based, human
Experimental: as §1

[3] = system: immobilized human muscles; assay: Bed rest study in healthy older adult humans; assay type: in vivo; conditions: healthy older adults, 10 days bed rest, 200 mg a day
Description: Two groups of healthy older adult humans (e.g., N=10 per group) who are moderately active remain in bed continuously for 10 days, except for toileting, and they consume a eucaloric diet providing the recommended dietary allowance for protein (0.8 g/kg of protein per day). […] Measurements before and after bed rest include muscle function and protein synthesis.

[4] = pH of BGE-105 dissolved in deionized water; assay type: physicochemical; conditions: 275 ug/mL in deionized water
Experimental: BGE-105 was administered in drinking water consumed ad libitum. The compound is mildly acidic when dissolved, resulting in a pH 4.5 solution. The deionized water was adjusted to pH 8.5 by adding 1N NaOH. The vehicle control group consumed water (ad libitum) of the same pH without drug.

## COc1cccc(OC)c1-n1c(NS(=O)(=O)[C@@H](C)[C@H](C)c2ncc(C)cn2)nnc1-c1cncc(C)c1 [BGE-105, (2S,3R)—N-(4-(2,6-dimethoxyphenyl)-5-(5-methyl-3-pyridinyl)-4H-1,2,4-triazol-3-yl)-3-(5-methyl-2-pyrimidinyl)-2-butanesulfonamide]
pAkt
  pAkt levels in the soleus: increased levels; also recorded: marginally significant increase
Tibialis of aged mice; 18-months old mice after cardiotoxin, apelin 0.5 μmol/kg/day, BGE-105 200 mg/kg/day
  amount of centrally nucleated myofibers (CNM): significant increase
Tibialis of aged mice; aged mice after cardiotoxin, BGE-105 50 or 200 mg/kg/day
  central nuclei in regenerating fibers: promoted accumulation of central nuclei; also recorded: dose-dependent increase in central nucleated fibers
Tibialis of aged mice; aged mice, 3 and 7 days post cardiotoxin, apelin, BGE-105 50 and 200 mg/kg/d
  cross-sectional area of the tibialis: positive effect; also recorded: significant increase in cross sectional area
25-HMC [1]; young donor cells, day 0 to day 4 post seeding
  cell proliferation, short-term treatment: significant increase of cell proliferation
25-HMC [1]; 5 nM
  cell proliferation (measured at day 4): increase
25-HMC [1]; 50 nM
  cell proliferation (measured at day 4): significant increase in cell proliferation
25-HMC [2]; young donor cells
  expression of muscle cell differentiation markers Pax7 and MyoD: increased the expression
25-HMC [2]; younger cells, 5 nM
  MyoD expression: very significant increase
25-HMC [2]; younger cells, 5 and 50 nM
  Myf5 expression: equal to apelin treatment
  Pax7 expression: recapitulated the levels of apelin
25-HMC [2]; younger cells, any amount of BGE-105, relative to control
  MyoG expression (FIG. 8F): no change
[3]
  muscle atrophy in immobilized human muscles: prevent or attenuate muscle atrophy
[4]
  pH of solution when dissolved: 4.5
